# What was measured:
# [1] = tested on: OXA-induced ear edema, ACD mouse model; experiment: Oxazolone-induced allergic contact dermatitis model, ear edema; type: in vivo; conditions: for OXA-induced edema formation: topically applied 1 μM
# Method: Prednisolone was solved in 1:1 of DMSO/saline and was administered topically (15-15 μL to the inner and outer surface of the ears). All other test compounds were solved in 96% ethanol. All solutions of all the concentrations were prepared freshly on the first day of every experiment and were stored at 4° C., then shaken properly before the treatments.
# Anesthesia was induced by ketamine (Richter Gedeon, Budapest, Hungary) (100 mg/kg i.p., repeated as required) with xylazine (Lavet Ltd., Budapest, Hungary) (5 mg/kg i.m.). Animals were sensitized on two consecutive days by painting 2% oxazolone (50-50 μL, Merck KGaA) on the shaved abdomen. On the 6th day the right ears were smeared with 2% oxazolone (OXA) dissolved in 96% ethanol: 15-15 μL solution was applied on each of the inner and outer surfaces. Control ears were treated with 96% ethanol in the same way. Drug-treated groups were treated with 15-15 μL of drug solution smeared to the inner and outer side of the ears every 4 hrs of the experiment after oxazolone treatment. A schematic of the experimental protocol is provided in FIG. 24 and the experimental groups are defined below. • (a) Group 1: Ethanol-treated Controls: left ear: 96% ethanol, right ear: 2% oxazolone • (b) Group 2: 1 μM CBD • (c) Group 3: 10 μM CBD • (d) Group 4: 1 μM HU101 • (e) Group 5: 10 μMHU101
# Ear thickness was measured with an engineer's micrometer, with 0.1 mm accuracy, before challenge with test agents and after the challenge at different time points. Data are expressed as % increase of ear thickness compared to the initial values.
# Results are expressed as mean±SEM. Comparisons between different treatment groups were performed using two-way ANOVA followed by Sidak's post hoc test for skin thickness and one-way ANOVA followed by Bonferroni's post hoc test for MPO and vascular leakage. * p<0.05 was considered to be significant.
# RAW-Blue™ cells = experiment: MTT cell viability assay, RAW-Blue™ cells; conditions: CBD 30 μM; BCP 300 μM
compound,measurement,setting,value
"C=C(C)[C@@H]1CCC(C)=C[C@H]1c1c(O)cc(CCCCC)cc1O [CBD, cannabidiol]","Effect in ACD mouse model, significance of ear edema difference","[1]; OXA + CBD 1 μM vs. OXA + CBD 10 μM, 56 h",* (* p ≤ 0.05)
same,"Effect in ACD mouse model, significance of ear edema difference","[1]; OXA vs. OXA + CBD 1 μM, 24 h",** (** p ≤ 0.01)
same,OXA-induced edema formation,[1]; 24 hr time-point,significantly prevented
same,OXA-induced edema formation,[1]; later time-points,only minor
same,anti-inflammatory effect on OXA-induced edema,[1]; topically applied 10 μM,did not exert any anti-inflammatory effect
same,toxicity (as determined by MTT assay),RAW-Blue™ cells,appeared to induce toxicity

# — patent US11154515B2, “Pharmaceutical compositions comprising cannabidiol and beta-caryophyllene and methods for their use” (priority 2017, dated 2021)
